Measurements published in ChEMBL document CHEMBL1201861, “Genomics of Drug Sensitity in Cancer screening data, Wellcome Trust Sanger Institute”.
pIC50: −log10 of the molar value.

Columns and labels:
Experiment in all cases: cells
SBC-5 = format: functional, cell-based, Homo sapiens; details: Homo sapiens, SBC-5;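 further: cell viability assay read-out, IC50 is the concentration that inhibits growth of the cells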
Description: SANGER: Inhibition of human SBC-5 cell growth in a cell viability assay.

HH = format: functional, cell-based; details: Homo sapiens
Description: SANGER: Inhibition of human HH cell growth in a cell viability assay.

G-401 = format: functional, cell-based, Homo sapiens; details: Homo sapiens, G-401
Description: SANGER: Inhibition of human G-401 cell growth in a cell viability assay.

786-0 = format: functional, cell-based, Homo sapiens; details: Homo sapiens
Description: SANGER: Inhibition of human 786-0 cell growth in a cell viability assay.

HT-3 = format: functional, cell-based, Homo sapiens; details: Homo sapiens, HT-3;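 further: growth inhibition measured with a cell viability readout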
Description: SANGER: Inhibition of human HT-3 cell growth in a cell viability assay.

SW 954 = format: functional, cell-based, Homo sapiens; details: Homo sapiens, SW 954;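 further: growth inhibition of SW954 human cancer cells, read out as cell viability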
Description: SANGER: Inhibition of human SW954 cell growth in a cell viability assay.

ES4 = format: functional, cell-based, Homo sapiens; details: Homo sapiens, ES4;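 further: growth inhibition of human ES4 cells, read out by a cell viability assay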
Description: SANGER: Inhibition of human ES4 cell growth in a cell viability assay.

A498 = format: functional, cell-based, Homo sapiens; details: Homo sapiens, A498;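 further: growth inhibition of human A498 cells, read out with a cell viability assay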
Description: SANGER: Inhibition of human A498 cell growth in a cell viability assay.

BFTC-905 = format: functional, cell-based, Homo sapiens; details: Homo sapiens, BFTC-905
Description: SANGER: Inhibition of human BFTC-905 cell growth in a cell viability assay.

SF-126 = format: functional, cell-based, Homo sapiens; details: Homo sapiens, SF-126;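 further: growth inhibition of human SF126 cells, read out with a cell viability assay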
Description: SANGER: Inhibition of human SF126 cell growth in a cell viability assay.

EFO-21 = format: functional, cell-based, Homo sapiens; details: Homo sapiens, EFO-21;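 further: growth inhibition of EFO-21 cells measured with a viability assay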
Description: SANGER: Inhibition of human EFO-21 cell growth in a cell viability assay.

IGR-1 = format: functional, cell-based, Homo sapiens; details: Homo sapiens, IGR-1;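 further: growth inhibition of human IGR-1 cells, read out with a cell viability assay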
Description: SANGER: Inhibition of human IGR-1 cell growth in a cell viability assay.

MKN-45 = format: functional, cell-based, Homo sapiens; details: Homo sapiens, MKN-45;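 further: growth inhibition of human MKN-45 cells, measured with a cell viability assay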
NB5 = format: functional, cell-based, Homo sapiens; details: Homo sapiens, NB5;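 further: growth inhibition of NB5 cells, read out as cell viability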
Description: SANGER: Inhibition of human NB5 cell growth in a cell viability assay.

HAL-01 = format: functional, cell-based; details: Homo sapiens;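 further: growth inhibition of human HAL-01 cells, read out with a cell viability assay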
Description: SANGER: Inhibition of human HAL-01 cell growth in a cell viability assay.

LC-2-ad = format: functional, cell-based, Homo sapiens; details: Homo sapiens, LC-2-ad;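 further: growth inhibition of human LC-2-ad cells, read out with a cell viability assay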
Description: SANGER: Inhibition of human LC-2-ad cell growth in a cell viability assay.

CAL-120 = format: functional, cell-based, Homo sapiens; details: Homo sapiens, CAL-120;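 further: cell growth inhibition, read out as cell viability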
Description: SANGER: Inhibition of human CAL-120 cell growth in a cell viability assay.

A388 = format: functional, cell-based, Homo sapiens; details: Homo sapiens, A388;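 further: growth inhibition of human A388 cells, read out with a cell viability assay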
Description: SANGER: Inhibition of human A388 cell growth in a cell viability assay.

HLE = format: functional, cell-based, Homo sapiens; details: Homo sapiens, HLE;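 further: growth inhibition of human HLE cells, read out by a cell viability assay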
Description: SANGER: Inhibition of human HLE cell growth in a cell viability assay.

SW 962 = format: functional, cell-based, Homo sapiens; details: Homo sapiens, SW 962;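 further: growth inhibition of human SW962 cells, read out by a cell viability assay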
Description: SANGER: Inhibition of human SW962 cell growth in a cell viability assay.

A4-Fuk = format: functional, cell-based; details: Homo sapiens;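 further: growth inhibition of A4-Fuk cells, read out by a cell viability assay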
Description: SANGER: Inhibition of human A4-Fuk cell growth in a cell viability assay.

TYK-nu = format: functional, cell-based, Homo sapiens; details: Homo sapiens, TYK-nu;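 further: growth inhibition of human TYK-nu cells, read out by a cell viability assay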
Description: SANGER: Inhibition of human TYK-nu cell growth in a cell viability assay.

D283 Med = format: functional, cell-based, Homo sapiens; details: Homo sapiens, D283 Med
Description: SANGER: Inhibition of human D-283MED cell growth in a cell viability assay.

SN12C = format: functional, cell-based, Homo sapiens; details: Homo sapiens, SN12C;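 further: growth inhibition of human SN12C cells, measured by a cell viability assay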
Description: SANGER: Inhibition of human SN12C cell growth in a cell viability assay.

BHT-101 = format: functional, cell-based, Homo sapiens; details: Homo sapiens, BHT-101
CWR22R = format: functional, cell-based, Homo sapiens; details: Homo sapiens, 22Rv1;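 further: growth inhibition of 22Rv1 cells, read out with a cell viability assay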
Description: SANGER: Inhibition of human 22RV1 cell growth in a cell viability assay.

TE-6 = format: functional, cell-based, Homo sapiens; details: Homo sapiens, TE-6;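 further: growth inhibition of TE-6 cells, read out with a cell viability assay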
Description: SANGER: Inhibition of human TE-6 cell growth in a cell viability assay.

NB10 = format: functional, cell-based, Homo sapiens; details: Homo sapiens, NB10;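 further: growth inhibition of NB10 cells, read out by a cell viability assay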
Description: SANGER: Inhibition of human NB10 cell growth in a cell viability assay.

ME-180 = format: functional, cell-based; details: Homo sapiens;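 further: cell viability assay measuring growth inhibition of ME-180 cells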
Description: SANGER: Inhibition of human ME-180 cell growth in a cell viability assay.

NH-12 = format: functional, cell-based, Homo sapiens; details: Homo sapiens, NH-12;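 further: growth inhibition of NH-12 cells, read out with a cell viability assay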
Description: SANGER: Inhibition of human NH-12 cell growth in a cell viability assay.

TGBC1TKB = format: functional, cell-based, Homo sapiens; details: Homo sapiens, TGBC1TKB;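 further: growth inhibition of TGBC1TKB cells, read out by a cell viability assay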
Description: SANGER: Inhibition of human TGBC1TKB cell growth in a cell viability assay.

SF-268 = format: functional, cell-based, Homo sapiens; details: Homo sapiens, SF-268;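 further: growth inhibition of SF-268 cells determined with a cell viability assay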
Description: SANGER: Inhibition of human SF268 cell growth in a cell viability assay.

K562 = format: functional, cell-based; details: Homo sapiens
Description: SANGER: Inhibition of human K-562 cell growth in a cell viability assay.

EW-1 = format: functional, cell-based, Homo sapiens; details: Homo sapiens, EW-1;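 further: growth inhibition of the human EW-1 cell line, read out by a cell viability assay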
Description: SANGER: Inhibition of human EW-1 cell growth in a cell viability assay.

MFE-280 = format: functional, cell-based, Homo sapiens; details: Homo sapiens, MFE-280;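 further: growth inhibition of MFE-280 cells, determined with a cell viability readout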
Description: SANGER: Inhibition of human MFE-280 cell growth in a cell viability assay.

NCI-H82 = format: functional, cell-based; details: Homo sapiens;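 further: growth inhibition of NCI-H82 cells, measured with a cell viability readout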
Description: SANGER: Inhibition of human NCI-H82 cell growth in a cell viability assay.

NCI-H2405 = format: functional, cell-based, Homo sapiens; details: Homo sapiens, NCI-H2405;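 further: growth inhibition of the human cell line, read out with a cell viability assay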
Description: SANGER: Inhibition of human NCI-H2405 cell growth in a cell viability assay.

QIMR-WIL = format: functional, cell-based; details: Homo sapiens;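 further: growth inhibition of QIMR-WIL cells, read out with a cell viability assay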
Description: SANGER: Inhibition of human QIMR-WIL cell growth in a cell viability assay.

CHP-212 = format: functional, cell-based, Homo sapiens; details: Homo sapiens, CHP-212
Description: SANGER: Inhibition of human CHP-212 cell growth in a cell viability assay.

C2BBe1 = format: functional, cell-based, Homo sapiens; details: Homo sapiens, C2BBe1;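 further: growth inhibition of C2BBe1 cells, read out through a viability assay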
Description: SANGER: Inhibition of human C2BBe1 cell growth in a cell viability assay.

NCI-H441 = format: functional, cell-based; details: Homo sapiens;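 further: growth inhibition of NCI-H441 cells, read out with a cell viability assay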
Description: SANGER: Inhibition of human NCI-H441 cell growth in a cell viability assay.

ES3 = format: functional, cell-based, Homo sapiens; details: Homo sapiens, ES3;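 further: growth inhibition of ES3 cells, read out with a cell viability assay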
G-402 = format: functional, cell-based, Homo sapiens; details: Homo sapiens, G-402
Description: SANGER: Inhibition of human G-402 cell growth in a cell viability assay.

MFH-ino = format: functional, cell-based; details: Homo sapiens;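 further: growth inhibition of human MFH-ino cells, read out by a cell viability assay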
Description: SANGER: Inhibition of human MFH-ino cell growth in a cell viability assay.

SW-620 = format: functional, cell-based, Homo sapiens; details: Homo sapiens, SW-620;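 further: growth inhibition of human SW-620 cells, measured by a cell viability assay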
Description: SANGER: Inhibition of human SW620 cell growth in a cell viability assay.

Hs-578T = format: functional, cell-based, Homo sapiens; details: Homo sapiens, Hs-578T
Description: SANGER: Inhibition of human Hs-578-T cell growth in a cell viability assay.

MG-63 = format: functional, cell-based, Homo sapiens; details: Homo sapiens, MG-63;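 further: growth inhibition of human MG-63 cells, read out with a cell viability assay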
Description: SANGER: Inhibition of human MG-63 cell growth in a cell viability assay.

PANC-03-27 = format: functional, cell-based, Homo sapiens; details: Homo sapiens, PANC-03-27
Description: SANGER: Inhibition of human PANC-03-27 cell growth in a cell viability assay.

FTC-133 = format: functional, cell-based, Homo sapiens; details: Homo sapiens, FTC-133
VMRC-RCZ = format: functional, cell-based; details: Homo sapiens;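 further: growth inhibition measured with a cell viability assay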
Description: SANGER: Inhibition of human VMRC-RCZ cell growth in a cell viability assay.

SKG-IIIa = format: functional, cell-based, Homo sapiens; details: Homo sapiens, SKG-IIIa;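 further: cell growth inhibition, read out with a cell viability assay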
Description: SANGER: Inhibition of human SKG-IIIa cell growth in a cell viability assay.

Measured: pIC50

Cc1ccc(Nc2nccc(N(C)c3ccc4c(C)n(C)nc4c3)n2)cc1S(N)(=O)=O [PAZOPANIB]
5.83: G-401
6.00: MG-63
5.79: HLE
6.27: G-402
5.61: SF-126
< 5.10: all other assays above

Cc1cnc(-c2cnc(NCCNc3ccc(C#N)cn3)nc2-c2ccc(Cl)cc2Cl)[nH]1 [LADUVIGLUSIB]
5.97: TYK-nu
5.88: A498
< 5.59: all other assays above

C=CCc1cccc(/C=N/NC(=O)CN2CCN(Cc3ccccc3)CC2)c1O [PAC-1]
6.13: 786-0
6.10: HAL-01
6.05: LC-2-ad
6.01: NH-12
6.12: PANC-03-27
6.00: G-401
< 5.59: all other assays above
